Laboratory results: patent publication US8143287B2, “Thrombopoietin mimetics” (Stategics, Inc., priority 2006, dated 2012)

What was measured:
Solubility in water = assay type: physicochemical; settings: parent compound without salt formation or use of specialized excipients
Protocol: A red solution of Compound 3f, 1 M HCl (0.75 mL, 0.75 mmol) and ethanol (1.5 mL) was cooled to 0 deg C. under nitrogen. A solution of 0.060 g of sodium nitrite in 1 mL of water was prepared separately and 0.25 mL (0.22 mmol of sodium nitrite) was added dropwise to the solution containing compound 3f with formation of a dark red-yellow color. The diazotization was monitored using TLC with 75% ethyl acetate-hexanes. Compound 1b (0.042 g, 0.21 mmol) was added after 30 min followed by sodium bicarbonate (0.086 g, 1.0 mmol) and additional ethanol (0.3 mL). The mixture was allowed to warm to 20 deg C., treated with additional sodium bicarbonate (0.073 g, 0.87 mmol) to adjust the pH to 7-8, and allowed to stir for 12 h. The mixture was diluted with ethyl acetate (100 mL) and 0.1 M HCl (5 mL). The aqueous layer was separated and extracted with 20 mL of ethyl acetate. The combined organics were washed with saturated sodium chloride (2×20 mL), and dried over sodium sulfate. The solvent was removed under reduced pressure and the residue purified by silica gel chromatography (40% ethyl acetate-hexanes) to afford Example 3 (0.0256 g, 29% yield over 2 steps). Electrospray MS [M]− 447.2.

[1] = system: CD34+ CD38− human bone marrow cells; settings: cited from earlier work

Row | solubility (Solubility in water) | Compound | expansion of multipotent progenitors ([1]; following a 14-day incubation) | enhancement of clonogenic growth ([1]; in response to KL+FL+IL-3+IL-6+EPO)
1 | 140 µM | CC1=NN(c2ccc(C)c(C)c2)C(=O)/C1=N\Nc1cccc(C2CCCC(C(=O)O)C2)c1O (stereo not drawn) [Example 3, 3-(3′-{2-[1-(3,4-dimethylphenyl)-3-methyl-5-oxo-4,5-dihydro-1H-pyrazol-4-ylidene]hydrazino}-2′-hydroxy-phenyl)cyclohexane-1-carboxylic Acid] |  | 
2 |  | Thrombopoietin [TPO] | 40 fold | ≤ 80%
